Consider 1 compound from patent US20260018245A1, “SYSTEMS AND METHODS FOR IDENTIFYING AND TARGETING COLLATERAL LETHAL GENES” (The Regents of the University of Michigan, priority 2022, published 2026).

Experiment [1] relates to isogenic SKOV3 cells (shScramble, shUQCR11). Put plainly: Nucleotide profiling after MTHFD2 inhibitor vs vehicle. Format: cell-based. From the text: FIG. 14 Analysis of global metabolomics and nucleotide pathways of ovarian cancer lines with and without UQCR11 deletion. (a) Pathway enrichment analysis using metabolic pathways in the KEGG database comparing UQCR11-intact and -null ovarian cancer lines from the CCLE panel (n=50). Pathway coverage represents fraction of metabolites in the KEGG pathway that have available data. Data analyzed using weighted z-test for pathway analysis built into MetaboAnalyst 5.0. (b) Pathway enrichment analysis on all metabolite concentrations measured in SKOV3 (UQCR11-intact) and OVCAR8, HeyA8 and CAOV3 (UQCR11-null) cells for metabolites involved in nucleotide metabolism. Pathway coverage, that is, percentage of metabolites measured from each pathway are represented by a gradient color-scale. […] Data analyzed using weighted z-test for pathway analysis built into MetaboAnalyst 5.0. […] Data are combined from two independent experiments and analyzed using two-sample t-tests corrected for multiple hypothesis testing, built into MetaboAnalyst 5.0. […] (d) Metabolites involved in pyrimidine synthesis and salvage are measured in SKOV3 (UQCR11-intact) and OVCAR8, HeyA8 and CAOV3 (UQCR11-null) cells and overlaid onto the pyrimidine metabolic pathway map. […] Data are combined from two independent experiments and analyzed using two-sample t-tests corrected for multiple hypothesis testing, built into MetaboAnalyst 5.0 (n=6). […]

The test system of experiment [2] is oxidative MTHFD2 flux in SKOV3 cells. Nature of the experiment: Oxidative MTHFD2 flux by 4-[2H]-glucose tracing. The class given is cell-based. The note with it: SKOV3 treated with rotenone and MTHFD2 inhibitor 60 μM. On the procedure:
FIG. 4 Dynamic flux analysis with parallel tracers to quantify oxidative MTHFD2 flux. a, Oxidative MTHFD2 flux and percentage decrease in OCRfollowing MTHFD2 inhibition in SKOV3 cells treated with rotenone (0, 31, 62, 125, 250, 500 or 1,000 nM) and MTHFD2 inhibitor (0 or 60 μM). Oxidative MTHFD2 flux is proportional to [2H1]-serine/[2H1]-NADH enrichment in cells cultured with 4-[2H]-glucose for 8 h. Percentage decrease in OCR is estimated in SKOV3 cells treated with 60 μM MTHFD2i compared with 0 μM MTHFD2i. Oxidative flux data are combined from two independent experiments (n=4), with mean±s.d. estimated using error propagation. […] (n=6) and analysed using two-tailed Welch's t-test. e, Ratio of [2H2]-serine/[2H]-NADH enrichment in SKOV3 and OVCAR8 cells at 2 h after combined tracer introduction of 4-[2H]-glucose and [2H]-formate, representing the normalized contribution of [2H]-NADH to [2H2]-serine via oxidative MTHFD2 flux. Data combined from two independent experiments (n=6), with mean±s.d. estimated using error propagation and analysed by two-tailed Welch's t-test. f, [2H2]-serine enrichment in SKOV3 cells expressing shScramble or shUQCR11 at 2 h after combined tracer introduction of 4-[2H]-glucose and [2H]-formate. […] (n=5) and analysed using one-tailed non-parametric Mann-Whitney test. […]

Consider `Cc1c(N2CCN(C)[C@@H](C)C2)ccc2c3c(c(=O)oc12)CN(C(=O)c1ccc(NS(C)(=O)=O)c(OC(F)(F)F)c1)CC3` [DS18561882], for which the “differentially abundant metabolites (nucleotides)” value in experiment [1] was “three out of 49”. The “oxidative MTHFD2 flux” value in experiment [2] is recorded as “suppressed”.
